Results as given in patent US10414778B2, “Methods for treatment of resistant cancer” (New Mexico Tech University Research Park Corporation, priority 2016, dated 2019).
Where two headings read alike, the source gives them in different places.

Columns and labels:
Format in all cases: cell-based, human
HeLa cells = experiment: MTT in vitro growth inhibition assay, HeLa; conditions: two independent experiments
Experimental: (§1) Human cancer cell lines were obtained from the American Type Culture Collection (ATCC, Manassas, Va., USA), the European Collection of Cell Culture (ECACC, Salisbury, UK), and the Deutsche Sammlung von Mikroorganismen und Zellkulturen (DSMZ, Braunschweig, Germany). Human cervical adenocarcinoma HeLa cells were cultured in DMEM supplemented with 10% fetal bovine serum (FBS). Human mammary carcinoma MCF-7 cells were cultured in RPMI supplemented with 10% FBS. The U87 cells (ATCC HTB-14) were cultured in DMEM culture medium, while the A549 cells (DSMZ ACC107) were cultured in RPMI culture medium supplemented with 10% heat-inactivated FBS. The GBM Hs683 (ATCC HTB-138) and the T98G (ATCC CRL-1690) cell lines were cultivated in DMEM supplemented with 10% FBS. The GBM U251 cells (ECACC code 09063001) were cultured in 10% MEM. The human uterine sarcoma MES-SA and MES-SA/Dx5 cells were cultured in RPMI-1640 medium supplemented with 10% FBS with MES SA/Dx5 maintained in the presence of 500 nM Doxorubicin (Sigma™). The U373 glioblastoma cells (ECACC 08061901) were cultured in RPMI culture medium supplemented with 10% heat-inactivated FBS.
(§2) Spirodienones 4a-m were subjected to in vitro growth inhibition 3-(4,5-dimethylthiazol-2-yl)-2,5-diphenyltetrazolium bromide (MTT) assays against two cell lines, human HeLa cervical and MCF-7 breast adenocarcinomas.
(§3) All compounds were dissolved in DMSO at a concentration of either 100 mM or 50 mM prior to cell treatment. The cells were trypsinized and seeded at various cell concentrations depending on the cell type. The cells were grown for 24 h to 72 h, treated with compounds at concentrations ranging from 0.001 to 100 μM, and incubated for 48, 72, or 96 h in 100 or 200 μL media depending on the cell line used. Cells treated with 0.1% DMSO were used as a negative control, and cells treated with 1 μM phenyl arsine oxide (PAO) were used as a positive control.
(§4) To determine the activities of the compounds of the invention toward cancer cells, cell lines treated with different compounds were subjected to an in vitro MTT growth assay using human cervical cancer (HeLa) and human adenocarcinoma (MCF-7) cell lines. The MTT growth assay is a colorimetric assay that measures the metabolic activity of cells via reduction of 3-(4,5-dimethylthiazol-2-yl)-2,5-diphenyltetrazolium bromide (MTT). The reduction of MTT occurs in metabolically-active cells and is characterized by a purple color, which can be quantified via spectrophotometry. A higher absorbance reading indicates a metabolically-active cell, while a low absorbance reading indicates low metabolic activity due to, for example, inhibition of cellular proliferation or cell death.
(§5) The values in TABLE 4 are the mean and standard deviation calculated from two independent experiments, which were performed in 4 replicates.

MCF-7 cells = experiment: MTT in vitro growth inhibition assay, MCF-7; conditions: two independent experiments
Experimental: as §1, §2, §3, §4, §5

A549 cells = experiment: MTT growth inhibition, A549 NSCLC; conditions: 48 hours, up to 100 μM, FIGS. 4-7
Experimental: as §1, §3
Drug-resistant cell lines (i.e., glioma: Hs683, U373, U251, U87, T98G; lung cancer: A549, H2073; uterine carcinoma: MES-SA/Dx5) were complemented with drug-sensitive cell lines, H1993 lung cancer and MES-SA uterine cancer, which were used as controls. […] The GI50 values were calculated after 48-96 hours of treatment with the indicated compounds in replicate using the MTT growth assay.
Compounds 5l and 5g were further tested using the A549 lung cancer cell line to determine a dose-response effect on apoptosis-resistant cells. (FIGS. 4-7). […] The MTT assay was performed in four replicates after 48 hours of treatment with the indicated compounds relative to a DMSO control.

[1] = Homo sapiens, HeLa, 48 h treatment, ± SD, read-out: cell viability GI50, HeLa
[2] = Homo sapiens, MCF7, MCF-7, 48 h treatment, ± SD, read-out: cell viability GI50, MCF-7
[3] = Homo sapiens, HeLa, Table 4, 48-hour treatment, mean and standard deviation, read-out: HeLa Cell Viability GI50
[4] = Homo sapiens, MCF7, Table 4, 48-hour treatment, mean and standard deviation, read-out: MCF-7 Cell Viability GI50

| Structure (SMILES) | GI50 (HeLa cells; [1]) [µM] | GI50 (MCF-7 cells; [2]) [µM] | GI50 (HeLa cells; [3]) [µM] | GI50 (MCF-7 cells; [4]) [µM] | also measured |
| --- | --- | --- | --- | --- | --- |
| O=C1C=CC2(C=C1)CCN(C(=O)C(F)(F)F)Cc1cccc(OCc3ccccc3)c12 [Compound 4i] | 11 ± 2 | 14 ± 2 |  |  |  |
| O=C1C=CC2(C=C1)CCN(C(=O)C(F)(F)F)Cc1cc(OCc3ccccc3)c(OCc3ccccc3)cc12 [Compound 4g] | 17 ± 1 | 25 ± 2 |  |  |  |
| O=C1C=C[C@]23CC[N@](Cc4cc5c(cc42)OCO5)[C@H]3C1 [Compound 5a] |  |  | 25.4 ± 3 | 23.9 ± 0.7 |  |
| COc1cc2c(cc1OC)[C@@]13C=CC(=O)C[C@@H]1[N@](CC3)C2 [Compound 5b] |  |  | 63.5 ± 2.7 | > 100 |  |
| O=C1C=CC2(C=C1)CCN(C(=O)C(F)(F)F)Cc1cc3c(cc12)OCCO3 [Compound 4c] | 21 ± 1 | 34 ± 12 |  |  |  |
| COc1cc2c(cc1OCc1ccccc1)[C@@]13C=CC(=O)C[C@@H]1[N@](CC3)C2 [Compound 5f] |  |  | 16.7 ± 1.8 | 16.8 ± 0.2 |  |
| O=C1C=CC2(C=C1)CCN(C(=O)C(F)(F)F)Cc1cc3c(cc12)OCO3 [Compound 4a] | 24 ± 2 | 30 ± 2 |  |  |  |
| COc1cc([C@@H]2c3cc4c(cc3[C@H](O)[C@H]3COC(=O)[C@H]23)OCO4)cc(OC)c1OC [PODO, podophyllotoxin, reference compound] |  |  |  |  | anti-proliferative activity, dose-response (absorbance at 595 nm) (A549 cells): did not display such potent anti-proliferative activity |
| COc1cc2c(cc1OC)C1(C=CC(=O)C=C1)CCN(C(=O)C(F)(F)F)C2 [Compound 4b] | 83 ± 5 | > 100 |  |  |  |
| O=C1C=C[C@]23CC[N@](Cc4c2ccc2c4OCO2)[C@H]3C1 [Compound 5d] |  |  | 60.5 ± 4.7 | 72.5 ± 2.5 |  |
| O=C1C=C[C@]23CC[N@](Cc4cc(OCc5ccccc5)ccc42)[C@H]3C1 [Compound 5h] |  |  | 7.9 ± 0.3 | 14.4 ± 1 |  |
| O=C1C=CC2(C=C1)CCN(C(=O)C(F)(F)F)Cc1c2ccc2c1OCO2 [Compound 4d] | > 100 | > 100 |  |  |  |
| O=C1C=C[C@]23CC[N@](Cc4cscc42)[C@H]3C1 [Compound 5k] |  |  | 25.4 ± 5.2 | 43.6 ± 2.1 |  |
| O=C1C=C[C@]23CC[N@](Cc4cc5c(cc42)OCCO5)[C@H]3C1 [Compound 5c] |  |  | 12.7 ± 2.3 | 18.6 ± 0.8 |  |
| COc1cc2c(cc1OCc1ccccc1)CN(C(=O)C(F)(F)F)CCC21C=CC(=O)C=C1 [Compound 4e] | 38 ± 2 | 48 ± 3 |  |  |  |
| O=C1C=CC2(C=C1)CCN(C(=O)C(F)(F)F)Cc1cc(OCc3ccccc3)ccc12 [Compound 4h] | 16 | 40 ± 1 |  |  |  |
| COc1cc2c(cc1OCc1ccccc1)C1(C=CC(=O)C=C1)CCN(C(=O)C(F)(F)F)C2 [Compound 4f] | 34 ± 4 | 34 ± 2 |  |  |  |
| CO[C@@H]1C=C[C@@]23c4cc5c(cc4CN(C[C@@H]2O)[C@H]3C1)OCO5 [Haemanthamine, reference compound] |  |  |  |  | GI50 (HeLa cells; Table 4, 48-hour treatment, mean and standard deviation, read-out: HeLa Cell Viability GI50): 1.8 ± 0.3 µM; GI50 (MCF-7 cells; Table 4, 48-hour treatment, mean and standard deviation, read-out: MCF-7 Cell Viability GI50): 2.1 ± 0.2 µM |
| COc1cc2c(cc1OCc1ccccc1)C[N@@]1CC[C@@]23C=CC(=O)C[C@H]13 [Compound 5e] |  |  | 11.8 ± 0.5 | 14.5 ± 1 |  |
| O=C1C=C[C@]23CC[N@](Cc4cccc(OCc5ccccc5)c42)[C@H]3C1 [Compound 5i] |  |  | 7.37 ± 0.9 | 11 |  |
